“Also recorded” adds a separate entry of the source.
How the values were obtained:
iPSC-RPE [1] = assay: Pigmentation (brightfield), gross (H&E) and fine (TEM) morphology of treated iPSC-RPE; type: cell-based, human; conditions: for gross cell morphology: H&E staining; for gross cell morphology / pigmentation levels / fine intracellular structure: AGN 193109 0.2 μM, endo-IWR-1 4 uM; for pigmentation levels: brightfield imaging, compared with DMSO; for fine intracellular structure: transmission electron microscopy; for effect on iPSC-RPE health / healthy RPE phenotype: verified by TER, brightfield, H&E and TEM
Description: (§1) Different techniques were used to study RPE morphologic features.
Brightfield imaging was used to determine RPE pigmentation defects, while hematoxylin and eosin (H&E) staining was valuable to inspect gross morphologic alterations of the monolayer. A section of transwell membrane was cut and mounted on a glass slide for brightfield imaging. Pigmentation levels were preserved after ENDO-1-IWR and AGN 193109 treatments as compared to DMSO-treated iPSC-RPE.
(§2) Finally, transmission electron microscopy (TEM) was used to detect fine morphological alterations, whereas scanning electron microscopy (SEM) was essential to study modifications in apical processes structures. […] In DMSO-treated iPSC-RPE we found both types of apical processes, petal and finger-like.
AGN 193109 was used at 0.2.μM and endo-IWR-1 at 4 uM. Both agents were dissolved in DMSO, so that the final concentration of DMSO was not more than 0.1%. The final concentration of DMSO control was 0.1%. The compounds were added in RPE maturation medium until cells were mature. Gross cell morphology was also analyzed (FIGS. 15B, 15E, and 15F, left image) to detect possible abnormalities. Fine intracellular structures were examined for alterations with transmission electron microscopy (TEM, FIGS. 15B, 15E, and 15F, right image).

iPSC-RPE [2] = assay: Acid phosphatase activity in lysates of treated RPE cells (p-nitrophenyl phosphate); type: cell-based, human; conditions: compared with DMSO- or endo-IWR-1-treated cells
Procedure: Acid phosphatase has higher expression in the macula (Boulton et al., The British Journal of Ophthalmology 78 (2), 125-9, doi: 10.1136/bjo.78.2.125 (1994)). This enzyme has an important role in photoreceptor outer segment digestion. The acid phosphatase activity was determined in cells treated with DMSO, AGN 193109 or endo-IWR-1. For these studies, RPE cells were lysed in distilled water to extract the enzyme. The lysates were then incubated with p-nitrophenyl phosphate, a phosphatase substrate that turns yellow when dephosphorylated by acid phosphatase. The color of the solution was measured with a spectrophotometer to estimate the enzyme activity.

iPSC-RPE [3] = assay: Scanning electron microscopy of apical processes of treated iPSC-RPE; type: cell-based, human; conditions: for type of apical processes enriched: SEM, DMSO control shows both petal and finger-like types
Procedure: FIG. 11. Defining petal (undulated) and finger-like apical processes. The transversal section of apical processes was measured to precisely define their shape. Petal-like apical processes, obtained by treating RPE cells with AGN 193109, have an average transversal length of 1.68 μm (length min 0.5, max 4 μm) and width of 0.20 μm (width min 0.1, max 1 μm). The petal-like apical processes are also wavy along their length. The width of the undulation ranges from 0.2 to 2 μm. Finger-like apical processes, obtained by treating RPE cells with endo-IWR-1, are cylindrical and have the same average transversal length and width of 0.23 μm (min 0.1, max 1 microns). An example of how measurements of the apical processes was done is shown for each type of apical processed.
as §1, §2

iPSC-RPE [4] = assay: iPSC-RPE cell area morphometry (REShAPE) after compound treatment; type: cell-based; conditions: compared with macular (P1) and peripheral (P3) human RPE and the DMSO control
Procedure: FIG. 13. Testing different concentrations of AGN 193109 and endo-IWR-1 to reproduce macular (P1), central (P2) and peripheral (P3) cells. A range of concentrations of AGN 193109 and endo-IWR-1 were tested that could be used to reproduce macular, central and peripheral RPE populations (labeled P1, P2 and P3, respectively). Population 1 (P1, macular cells) can be reproduced with […] of AGN 193109. Population 3 (P3, peripheral) can be reproduced with 1 mM-4 mM of endo-IWR-1. A gradient of AGN 193109 and endo-IWR-1 could be used to replicate human RPE population 2 (P2, central)—central RPE cells. In one example, this can be reproduced with 25 nM-50 nM of AGN 193109 and 0.1 mM-0.5 mM of endo-IWR-1. Boxplots relative to DMSO, P1, P2 and P3 are plotted on the left side of the graph as a reference for cell size comparison. Five concentrations were tested for AGN 193109 and endo-IWR-1.
Screening of Compound Library and Imaging: 115 drugs targeting various developmental pathways or cytoskeletal stressors were selected to form a new developmental library of compounds. The drugs are either activators or inhibitors of various signaling pathways and target proteins at different levels of the signaling cascades. For each drug, an initial concentration was selected, and adjustments made to the concentration of each drug. The assays were performed on iPSC-derived committed RPE. For every drug, the concentration was lowered if toxicity was detected or increased if there was no evident effect on cell morphology in comparison to control. The list of compounds tested can be found in Table 1. The high-content screening was performed in 384-well plates (cat #6057300, Perkin Elmer) using a range of 3 different concentrations (3×, 1×, 0.3×). All drugs were reconstituted in dimethyl sulfoxide (DMSO, cat #D2650, Sigma) and 40 ul of each drug was aliquoted in triplicate in a 384-well master plate. Serial dilutions with RPEGM were then performed to obtain the final desired working concentrations and the final plates were stored at −80° C. […]

iPSC-RPE [5] = assay: Trans-epithelial electrical resistance (TER) of treated iPSC-RPE monolayer; type: cell-based, human; conditions: for TER relative to cutoff / epithelial barrier integrity, in words: cutoff of 400 ohm*cm^2; for trans-epithelial electrical resistance (TER): fully mature iPSC-RPE, minimum threshold 400 Ωcm^2, DMSO around 1100 Ωcm^2
Procedure: as §1
At this point the trans-epithelial electrical resistance (TER) was assayed to confirm the quality of differentiation and examine the effect of drugs on tight junction integrity. The minimum threshold of 400 Ωcm^2 for epithelial resistance per unit area is used to determine good batches of differentiation.
Trans-epithelial electrical resistance (TER) is a measure of the tightness of the monolayer. The tighter the monolayer, the healthier are the cells in the monolayer. A cutoff of 400 ohm*cm^2 was used to exclude cells with low TER. […] The range specifies 90% of the data.

iPSC-RPE cells = assay: Phagocytosis test with labelled bovine outer segments, flow cytometry; type: cell-based, human; conditions: purified bovine outer segments, 4 hours, One-way ANOVA showed no difference
Procedure: iPSC-RPE cells were provided purified bovine outer segment (mostly rod photoreceptors) to phagocytose. The outer segments were labelled with a dye that fluoresces when the outer segments are phagocytosed. RPE cells were incubated for 4 hours with outer segments and then analyzed with flow cytometry to measure outer segment ingestion, or put back in the incubator for 20 hours before performing flow cytometry to measure outer segment digestion.

In the case of `Cc1ccc(C2=CCC(C)(C)c3ccc(C#Cc4ccc(C(=O)O)cc4)cc32)cc1` [AGN 193109, 4-[2-[5,6-Dihydro-5,5-dimethyl-8-(4-methylphenyl)-2-naphthalenyl]ethynyl]-benzoic acid], the gross cell morphology (iPSC-RPE [1]) was “no gross morphological alterations were detected; also recorded: nor did they affect gross or fine cell morphology”, the pigmentation levels (iPSC-RPE [1]) was “preserved; also recorded: did not alter pigmentation levels” and the fine intracellular structure (iPSC-RPE [1]) was “no fine intracellular structure defects were identified; also recorded: nor did they affect gross or fine cell morphology”. The “effect on iPSC-RPE health / healthy RPE phenotype” value (iPSC-RPE [1]) was “not disruptive of iPSC-RPE health; also recorded: did not affect the healthy RPE phenotype”, the acid phosphatase activity (iPSC-RPE [2]) was “higher acid phosphatase activity” and the “type of apical processes enriched” value (iPSC-RPE [3]) was “enriched RPE cells with petal-like apical processes (with undulation)”. The “average transversal width of apical processes” value (iPSC-RPE [3]; transversal section, FIG. 11) was 0.20 μm, the “human RPE population whose cell size is reproduced by treated iPSC-RPE” value (iPSC-RPE [4]) was “comparable to the dimension of macular RPE population (P1)” and the “TER relative to cutoff / epithelial barrier integrity, in words” value (iPSC-RPE [5]) was “well above the threshold; also recorded: well above this threshold”. For the same compound, the “trans-epithelial electrical resistance (TER)” value (iPSC-RPE [5]) was ~1600 Ωcm^2.
For `O=C(Nc1cccc2cccnc12)c1ccc(N2C(=O)C3C4C=CC(C4)C3C2=O)cc1` (stereo not drawn) [endo-IWR-1, 4-(1,3,3a,4,7,7a-Hexahydro-1,3-dioxo-4,7-methano-2H-isoindol-2-yl)-N-8-quinolinyl-Benzamide], the gross cell morphology (iPSC-RPE [1]) was “nor did they affect gross or fine cell morphology”, the gross cell morphology (iPSC-RPE [1]; listed as ENDO-1-IWR) was “no gross morphological alterations were detected” and the pigmentation levels (iPSC-RPE [1]) was “did not alter pigmentation levels”. The pigmentation levels (iPSC-RPE [1]; listed as ENDO-1-IWR) was “preserved”, the pigmentation levels (iPSC-RPE [1]; listed as Endo-IWR-1) was “did not alter pigmentation levels” and the fine intracellular structure (iPSC-RPE [1]) was “nor did they affect gross or fine cell morphology”. For the same compound, the fine intracellular structure (iPSC-RPE [1]; listed as ENDO-1-IWR) was “no fine intracellular structure defects were identified”, the “effect on iPSC-RPE health / healthy RPE phenotype” value (iPSC-RPE [1]; listed as ENDO-1-IWR) was “not disruptive of iPSC-RPE health; also recorded: did not affect the healthy RPE phenotype” and the “type of apical processes enriched” value (iPSC-RPE [3]) was “enriched cells with finger-like apical processes”. The “type of apical processes enriched” value (iPSC-RPE [3]; listed as ENDO-1-IWR) was “all RPE cells were enriched uniquely by finger-like apical processes”, the “average transversal length of apical processes” value (iPSC-RPE [3]; transversal section, FIG. 11) was 0.23 μm and the “average transversal width of apical processes” value (iPSC-RPE [3]; transversal section, FIG. 11) was 0.23 μm. The outer segment ingestion (iPSC-RPE cells) was “ingest (peripheral cells) more outer segments”, the “human RPE population whose cell size is reproduced by treated iPSC-RPE” value (iPSC-RPE [4]) was “peripheral” and the “human RPE population whose cell size is reproduced by treated iPSC-RPE” value (iPSC-RPE [4]; listed as ENDO-1-IWR) was “comparable to cells of peripheral RPE population P3”. The “TER relative to cutoff / epithelial barrier integrity, in words” value (iPSC-RPE [5]) was “well above the threshold; also recorded: well above this threshold” and the “trans-epithelial electrical resistance (TER)” value (iPSC-RPE [5]) was ~1200 Ωcm^2.
